What was measured:
HCT116 cell line = experiment: Anti-proliferative activity, Alamar Blue assay; type: cell-based; conditions: HCT-116, human colon cancer cell line HCT116, 72 hours with compound, read-out: IC50 values against the HCT116 cell line
Method: The anti-proliferative activities of compounds of the invention can be determined by measuring the ability of the compounds to inhibition of cell growth in a number of cell lines such as the human colon cancer cell line HCT116. Inhibition of cell growth is measured using the Alamar Blue assay (Nociari, M. M, Shalev, A., Benias, P., Russo, C. Journal of Immunological Methods 1998, 213, 157-167). The method is based on the ability of viable cells to reduce resazurin to its fluorescent product resorufin. For each proliferation assay cells are plated onto 96 well plates and allowed to recover for 16 hours prior to the addition of inhibitor compounds for a further 72 hours. At the end of the incubation period 10% (v/v) Alamar Blue is added and incubated for a further 6 hours prior to determination of fluorescent product at […]. In the case of the non-proliferating cell assay cells are maintained at confluence for 96 hour prior to the addition of inhibitor compounds for a further 72 hours. The number of viable cells is determined by Alamar Blue assay as before. Cell lines can be obtained from the ECACC (European Collection of cell Cultures).

[1] = target: T1, Human Hsp90α N-terminal domain (Homo sapiens, UniProt P07900); experiment: Isothermal titration calorimetry (ITC); type: binding; conditions: pH 7.4
T1 construct: purification of the Human Hsp90α N-terminal domain were performed according to published methods; made in house
Method: The ability of the compounds of the invention to bind to human Hsp90 proteins was determined using isothermal titration calorimetry.
Isothermal titration calorimetry (ITC) experiments were performed with a VP-ITC titration calorimeter (Microcal Inc., Northampton, Mass., USA). […] All solutions were filtered and degassed prior to a titration being carried out. The enthalpy change resulting from each injection of ligand was obtained through integration of the calorimetric signal. Data were analysed using Origin 7.0 (Microcal Software Inc., Northampton, Mass.). Heats of dilution were estimated using the final injections of each individual titration and subtracted before data fitting. Different ITC experimental formats were employed in order to obtain compound dissociation constants (Kd's) over a wide range of affinities. […] In this type of experiment the stoichiometry parameter (N) was locked at 1 for data fitting.

Row | Structure (SMILES) | IC50 (HCT116 cell line) [µM] | Kd [1] [µM]
1 | CNC(=O)CN(C(=O)c1cc(C(C)C)c(O)cc1O)c1ccc(CN2CCOCC2)cc1 [Example 63, 2,4-dihydroxy-5-isopropyl-N-methylcarbamoylmethyl-N-(4-morpholin-4-ylmethyl-phenyl)-benzamide] | < 10 | 
2 | CC(C)c1cc(C(=O)N2CCS(=O)(=O)CC2)c(O)cc1O [Example 68, (2,4-dihydroxy-5-isopropyl-phenyl)-(1,1-dioxo-1lambda*6*-thiomorpholin-4-yl)-methanone] | < 10 | 
3 | CCOC(=O)CC1CCN(C(=O)c2cc(C(C)C)c(O)cc2O)CC1 [Example 60, [1-(2,4-dihydroxy-5-isopropyl-benzoyl)-piperidin-4-yl)-acetic acidethyl ester] | < 10 | 
4 | CC(C)c1cc(C(=O)N2CCN(C(=O)OC(C)(C)C)CC2)c(O)cc1O [Example 69, 4-(2,4-dihydroxy-5-isopropyl-benzoyl)-piperazine-1-carboxylic acidtert-butyl ester] | < 10 | 
5 | CC(C)c1cc(C(=O)N(C)c2ccc(F)cc2)c(O)cc1O [Example 70, N-(4-fluoro-phenyl)-2,4-dihydroxy-5-isopropyl-N-methyl-benzamide] | < 10 | 
6 | CC(C)c1cc(C(=O)N2CCOCC2)ccc1O [Example 20, (4-Hydroxy-3-isopropyl-phenyl)-morpholin-4-yl-methanone] |  | < 1
7 | CC(C)c1cc(C(=O)N(C)c2ccc(CN3CCOCC3)cc2)c(O)cc1O [Example 64, 2,4-dihydroxy-5-isopropyl-N-methyl-N-(4-morpholin-4-yl-methyl-phenyl)-benzamide] | < 10 | 
8 | CC(C)c1cc(C(=O)N2CCOCC2)c(O)cc1O [Example 29, (2,4-Dihydroxy-5-isopropyl-phenyl)-morpholin-4-yl-methanone] |  | < 1
9 | CNC(=O)CN(C(=O)c1cc(C(C)C)c(O)cc1O)c1ccc(F)cc1 [Example 62, N-(4-fluoro-phenyl)-2,4-dihydroxy-5-isopropyl-N-methylcarbamoylmethyl-benzamide] | < 10 | 
10 | CC(C)c1cc(C(=O)N2CCN(C)CC2)c(O)cc1O [Example 66, (2,4-dihydroxy-5-isopropyl-phenyl)-(4-methyl-piperazin-1-yl)-methanone] | < 10 | 
11 | CC(C)c1cc(C(=O)N(c2ccc(F)cc2)C2CCOCC2)c(O)cc1O [Example 73, N-(4-fluoro-phenyl)-2,4-dihydroxy-5-isopropyl-N-(tetrahydro-pyran-4-yl)-benzamide] | < 10 | < 1
12 | CC(C)c1cc(C(=O)N2CCOC(CO)C2)c(O)cc1O (stereo not shown) [Example 55, (2,4-dihydroxy-5-isopropyl-phenyl)-(2-hydroxymethyl-morpholin-4yl)-methanone] | < 10 | < 1
13 | CCN(C(=O)c1cc(C(C)C)c(O)cc1O)c1ccc(F)cc1 [Example 71, N-ethyl-N-(4-fluoro-phenyl)-2,4-dihydroxy-5-isopropyl-benzamide] | < 10 | 
14 | CC(C)c1cc(C(=O)N(Cc2ccccc2)c2ccc(CN3CCOCC3)cc2)c(O)cc1O [Example 65, N-benzyl-2,4-dihydroxy-5-isopropyl-N-(4-morpholin-4-ylmethyl-phenyl)-benzamide] | < 10 | < 1
15 | CC(C)(C)c1cc(C(=O)N2CCC(O)(c3ccccc3)CC2)ccc1O [Example 37, (3-tert-Butyl-4-hydroxy-phenyl)-(4-hydroxy-4-phenyl-piperidin-1-yl)-methanone] | < 10 | 
16 | CC(C)c1cc(C(=O)N2CCN(CCN(C)C)CC2)c(O)cc1O [Example 56, (2,4-dihydroxy-5-isopropyl-phenyl)-[4-(2-dimethylamino-ethyl)-piperazin-1-yl]-methanone] | < 10 | < 1
17 | CC(C)(C)c1cc(C(=O)N2CCOCC2)c(O)cc1O [Example 54, (5-tert-Butyl-2,4-dihydroxy-phenyl)-morpholin-4-yl-methanone] | < 10 | < 1
18 | CC(C)c1cc(C(=O)N(CCC#N)c2ccc(F)cc2)c(O)cc1O [Example 72, N-(2-cyano-ethyl)-N-(4-fluoro-phenyl)-2,4-dihydroxy-5-isopropyl-benzamide] | < 10 | 
19 | CC1CN(C(=O)c2cc(C(C)C)c(O)cc2O)CC(C)O1 (stereo not shown) [Example 59, (2,4-dihydroxy-5-isopropyl-phenyl)-(2,6-dimethyl-morpholin-4-yl)-methanone] | < 10 | 
20 | CC(C)c1cc(C(=O)N2CCC(CCO)CC2)c(O)cc1O [Example 57] | < 10 | < 1
21 | CC(C)c1cc(C(=O)N2CC[C@@H](O)C2)c(O)cc1O (stereo in doubt) [Example 61, (2,4-dihydroxy-5-isopropyl-phenyl)-(3-hydroxy-pyrrolidin-1yl)-methanone] | < 10 | 
22 | CC(C)c1cc(C(=O)N2CCC(CO)CC2)c(O)cc1O [Example 58, (2,4-dihydroxy-5-isopropyl-phenyl)-(4-hydroxymethyl-piperidin-yl)-methanone] | < 10 | 

— patent publication US20080306054A1, “Pharmaceutical Compounds” (ASTEX THERAPEUTICS LIMITED, priority 2005, published 2008)
